Measured values published in patent publication US20260157984A1, “CERAMIDE COMPOSITION” (GENUINE R&D CO., LTD., priority 2021, published 2026).

Tested on: HaCaT cells
Experiment: Measurement of mitochondrial activity by IN Cell Analyzer 2200 in HaCaT cells
Type: cell-based, human
Details: HaCaT cells treated with ceramides 48 hours, 5 μM, FIG. 1
Method: A human epidermal keratinocyte cell line, i.e., HaCaT cells, was used as a human skin cell model. The cells were subcultured in a cell culture dish (Greiner Bio-One Co., Ltd., Tokyo, Japan) at 37° C. in the presence of 5% CO2 by using DMEM medium (Dulbecco's Modified Eagle Medium, Nissui, Tokyo, Japan) containing 10% inactivated fetal bovine serum (FBS, Life Technologies Corporation, CA, USA). […]
HaCaT cells were seeded in a 96-well plate at a density of 6.0×10^4 cells/mL and precultured for 24 hours. […] Thereafter, the diluted Hoechst […] solution was removed from the 96-well plate, […] of PBS was added, and the fluorescence was detected using an IN Cell Analyzer 2200 (GE Healthcare). By measuring the amounts of fluorescence of MitoTracker Red, MitoTracker Green, and Hoechst 33342, the mitochondrial activity, number, and area in the cells were examined. The images were analyzed using IN Cell Investigator High-content image analysis software (GE Healthcare).
The mitochondrial number and area (MitoTracker Green), as well as the mitochondrial membrane potential activity (MitoTracker Red), per cell were measured using an IN Cell Analyzer 2200 in HaCaT cells treated with ceramides for 48 hours.

Compound: CCCCCCCCCCCCCCCCCC(=O)N[C@@H](CO)[C@H](O)CCCCCCCCCCCCCCC [synthetic ceramide, ceramide NG]
- mitochondrial number per cell (MitoTracker Green): significantly increased
